Source: PubChem BioAssay AID2286 (Southern Research Specialized Biocontainment Screening …, 2010)
Calls of active or inactive are those of the source.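 Rule for the calls: active = minimum cell viability of 80% or lower across the dose range, counted as toxic; inactive = minimum cell viability above 80%.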

Assay: viability loss in fusion assay cells – cell-based, MAGI and MAGI-HeLa co-culture, cytotoxicity control for HIV-1 fusion inhibitor project, dose response (AID 2286);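 note: cells exposed to compound for at least 64 h before ATP readout; 100% = median of DMSO vehicle wells with no ATP signal meaning 0%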
Conditions: MAGI-CCR5 cells viability, CellTiter-Glo ATP luminescence; for minimum viability: measured here: MAGI minimum viability across doses
[1] = MAGI-HeLa co-culture viability, at 50 µM, stronger effect = lower value
[2] = at 12.5 µM, stronger effect = lower value
[3] = at 1.56 µM, stronger effect = lower value
[4] = at 3.13 µM, stronger effect = lower value

SMILES	viability [1]	viability (at 50 µM (top of the series))	minimum viability (at 50 µM, stronger effect = lower value)	further results
Cc1cc(N2C(=O)C(O)=C(C(=O)c3cc4ccccc4o3)C2c2ccc(Cl)cc2)no1 (stereo not given)	123%	83.2% (inactive)	83.2%	
CCc1nnc(NS(=O)(=O)c2ccc(N/C=C(\C=O)c3nc4cc(Cl)ccc4o3)cc2)s1	99.2%	90.2% (inactive)		minimum viability [2]: 84.6%
O=C1NN(c2ccc(Cl)cc2)C(=O)/C1=C\c1ccc(-c2cccc(C(=O)O)c2)o1	81.8%	83.3% (inactive)	83.3%	
CC1=NN(c2ccc(C(=O)O)cc2)C(=O)/C1=C\c1ccc(OC(=O)c2cccs2)cc1	120%	94.8% (inactive)		minimum viability [3]: 93.5%
N#Cc1c(-c2cccs2)nc(SCc2ccc(Cl)cc2)[nH]c1=O	118%		73%	
O=C(O)c1ccccc1N=Nc1c(O)[nH]c2ccc([N+](=O)[O-])cc12	87.3%	90.2% (inactive)	90.2%	
CCS(=O)(=O)C1=NSC2=NC(=O)/C(=C\c3ccc(OS(=O)(=O)c4ccccc4)cc3)C(=N)N21	85.9%		74.9%	
O=c1oc2ccccc2c(O)c1C(c1ccc([N+](=O)[O-])cc1)c1c(O)c2ccccc2oc1=O	133%		68.8%	
Cc1ccc(NC(=O)COc2cccc(/C=C3\SC(=S)N(CCC(=O)O)C3=O)c2)cc1Cl	94%		77%	
COc1cc(/C=C2\C(=N)N3N=C(S(C)(=O)=O)SC3=NC2=O)ccc1OS(=O)(=O)c1ccccc1	113%	91.8% (inactive)	91.8%	
O=C(Nc1ccc(Br)cc1C(=O)O)c1ccc2c(c1)C(=O)N(Cc1ccccc1)C2=O	101%	105% (inactive)		minimum viability [3]: 82.6%
CCOC(=O)c1sc(N2C(=O)C(O)=C(C(=O)c3ccco3)C2c2cccc([N+](=O)[O-])c2)nc1C (stereo not given)	110%	83.5% (inactive)	83.5%	
CC1(C)CC(=O)C2=C(C1)c1c(ccc3ccccc13)NC2c1cc([N+](=O)[O-])cc([N+](=O)[O-])c1O (stereo not given)	107%		56%	
COc1ccc(NC(=O)c2c[nH]n3c(=O)cc(C4CCN(C(=O)OC(C)(C)C)CC4)nc23)cc1Cl	94.3%	88.3% (inactive)	88.3%	
COc1ccc(-c2cc(-c3ccc(Cl)cc3)c(C#N)c(SCC(=O)O)n2)cc1	96.4%	82.1% (inactive)	82.1%	
COc1ccc(N=C2S/C(=C\c3ccc(OC(C)C(=O)O)c(OC)c3)C(=O)N2CCc2c[nH]c3ccccc23)cc1 (stereo not given)	148%		70.5%	
O=C1N/C(=N\S(=O)(=O)c2ccccc2)S/C1=C\c1cc([N+](=O)[O-])ccc1O	107%	93.8% (inactive)		minimum viability [2]: 88.1%
O=C(NCCc1ccccc1)c1ccc2c(=O)[nH]c3c(C(=O)NCC4CCCO4)sc(=S)n3c2c1 (stereo not given)	115%		70.9%	
O=C1NN(c2ccc(Cl)c(Cl)c2)C(=O)/C1=C/c1cccc(OC(=O)c2cccs2)c1	111%	90.3% (inactive)		minimum viability (at 25 µM, stronger effect = lower value): 86.1%
Cc1ccc(S(=O)(=O)Oc2ccc(/C=C3/C(=N)N4C(=NC3=O)SN=C4S(C)(=O)=O)cc2)cc1	104%		78.9%	
CCOc1cc(/C=N/NC(=O)c2ccc(-c3csc(Nc4ccc(C)cc4)n3)cc2)ccc1OCC(=O)O	92.6%	90.2% (inactive)		minimum viability [2]: 83.3%
O=C(O)c1cccc(-n2cccc2/C=C2/NC(=O)N(c3ccc(Cl)cc3)C2=O)c1	112%	106% (inactive)		minimum viability [3]: 97.5%
O=C(O)c1ccc(NS(=O)(=O)c2ccc3c(c2)C2C=CCC2C(c2ccccc2F)N3)cc1 (stereo not given)	111%	102% (inactive)		minimum viability [4]: 93.8%
N=C1/C(=C\c2ccc(-c3cccc(C(=O)O)c3)o2)C(=O)N=C2SC=C(c3ccccc3)N12	103%	81% (inactive)		minimum viability [2]: 80.3%
O=C1NC(=S)N(c2ccc(F)cc2)C(=O)/C1=C\c1ccoc1	99.5%	84.8% (inactive)	84.8%	
Cc1cc(N2C(=O)C(O)=C(C(=O)c3ccc(C)o3)C2c2cccc(Oc3ccccc3)c2)no1 (stereo not given)	89%	82.1% (inactive)	82.1%	
COc1cc(/C=C2\SC(=O)N(CC(=O)Nc3cccc(C)c3)C2=O)cc([N+](=O)[O-])c1O	111%		74.5%	

SMILES	viability [1]	viability (at 50 µM (top of the series))	minimum viability (at 50 µM, stronger effect = lower value)	further results
Cc1cccc(S(=O)(=O)Nc2nc3ccccc3nc2Nc2cccc(C(=O)O)c2)c1	100%	88.6% (inactive)	88.6%	
COc1ccc(N2C(=O)/C(=C/c3ccco3)C(=O)NC2=S)cc1	86.3%	100% (inactive)		minimum viability [3]: 84.8%
CCOc1ccc(C2C(C(=O)Nc3ccccc3)=C(C)N=c3s/c(=C/c4cccc(OCC(=O)O)c4)c(=O)n32)cc1 (stereo not given)	94.8%	96.2% (inactive)		minimum viability [3]: 87.8%
O=C(CCN1C(=O)/C(=C/c2ccccc2Cl)SC1=S)Nc1ccccc1C(=O)O	109%	98.3% (inactive)		minimum viability (at 0.78 µM, stronger effect = lower value): 87.5%
CCOC(=O)c1c(N2C(=O)Nc3cc(Cl)c(Cl)cc3N2O)sc2c1CCCCC2	98.1%		70.1%	
COc1ccc(OC)c(/C=C2\SC(=S)N(NS(=O)(=O)c3ccc(C)cc3)C2=O)c1	107%	101% (inactive)		minimum viability [3]: 90.5%
Cc1c(CC(=O)O)c(=O)oc2c(C)c3occ(-c4ccc(Br)cc4)c3cc12	123%		75.8%	
O=C(O)COc1ccc(/C=N/NC(=O)c2ccc(-c3csc(Nc4ccc(Cl)cc4)n3)cc2)cc1	96.5%	96.8% (inactive)		minimum viability (at 25 µM, stronger effect = lower value): 83.4%
COc1cccc(-c2nc(SCC(=O)Nc3nc(-c4ccccc4)c(C)s3)[nH]c(=O)c2C#N)c1	116%	87.6% (inactive)	87.6%	
O=C(O)CSc1cc(C(=O)c2cc(F)ccc2O)cn2c(=O)c3c(-c4ccccc4)csc3nc12	88%		56.4%	
CCOC(=O)C1=C(C)N=c2s/c(=C/c3ccc(OCC(=O)O)cc3)c(=O)n2C1c1ccc(SC)cc1 (stereo not given)	101%	88.1% (inactive)	88.1%	
COc1cc(/C=C2\S/C(=N/S(=O)(=O)c3ccc(C)cc3)NC2=O)c([N+](=O)[O-])cc1OC	98.5%	98.6% (inactive)	98.6%	
CCOc1ccc(NC(=NCc2ccc3c(c2)OCO3)SC2CC(=O)N(c3ccc(C(=O)O)cc3)C2=O)cc1 (stereo not given)	81.3%			viability (at 25 µM (top of the series)): 84.3% (inactive); minimum viability (at 25 µM, stronger effect = lower value): 84.3%
CC(c1ccccc1)N1C(=O)c2ccc(C(=O)Nc3ccccc3C(=O)O)cc2C1=O (stereo not given)	111%	100% (inactive)		minimum viability (at 25 µM, stronger effect = lower value): 85.5%
COc1ccc(/C=N/NC(=O)c2[nH]c3ccc(Br)cc3c2-c2ccccc2)c(C(=O)O)c1OC	95%	90.4% (inactive)	90.4%	
C=CCOc1ccc(C(c2c(C(=O)O)[nH]c3ccccc23)c2c(C(=O)O)[nH]c3ccccc23)cc1	89%	91.1% (inactive)		minimum viability (at 25 µM, stronger effect = lower value): 85.9%
Cc1ccc(F)c(NC(=O)/C(C#N)=C(\O)c2ccc(C(C)(C)C)cc2)c1	101%		76.4%	
O=C(O)CN1C(=O)/C(=C\c2cccc(OCc3ccc(Cl)cc3)c2)SC1=S	98.9%	83.6% (inactive)	83.6%	
COC(=O)c1sc(-c2ccc(C(C)(C)C)cc2)cc1NC(=O)CSCC(=O)O	105%	83.5% (inactive)	83.5%	
Cc1ccc2nc(N3C(=O)C(O)=C(C(=O)c4ccco4)C3c3cccc(O)c3)sc2c1 (stereo not given)	105%	93.2% (inactive)		minimum viability [3]: 84.4%
COc1cc(/C=N/Nc2ccc(Cl)c(C(=O)O)c2)ccc1OC(=O)c1ccccc1F	105%	103% (inactive)		minimum viability [4]: 95.8%
COc1cccc(-c2coc3c(C)c4oc(=O)c(CCC(=O)O)c(C)c4cc23)c1	83.6%		55.5%	
CCOc1cc(/C=C2\SC(=S)N(C(C(=O)O)c3ccccc3)C2=O)ccc1O (stereo not given)	90.8%	96.9% (inactive)		minimum viability [4]: 85.8%
O=C(N/N=C/c1cc(Br)c(O)c(Br)c1)c1cc2c(ccc3ccccc32)o1	112%			viability (at 25 µM (top of the series)): 81.4% (inactive); minimum viability (at 25 µM, stronger effect = lower value): 81.4%
NC(=O)Cn1cc(C=C2C(=O)NC(=O)NC2=O)c2ccccc21	99.6%	91.7% (inactive)	91.7%	
O=C(Nc1cc(C(=O)Nc2ccccc2C(=O)O)cc(C(=O)Nc2ccccc2C(=O)O)c1)c1ccccc1	122%	113% (inactive)		minimum viability (at 6.25 µM, stronger effect = lower value): 90.9%
